Key:
[1] = type: in vitro ADME; conditions: human
Experimental: (§1) The epimerization rate was measured according to the following assay. Specifically, 100 μL medium (buffer, rat plasma, dog plasma, or human plasma) was added into a 96-well deep plate. To the plasma was then added 10 μL acetonitrile solution containing a test compound (1S,3aR,6aS)-2-((S)-2-((S)-2-cyclohexyl-2-(pyrazine-2-carboxamido)acetamido)-3,3-dimethylbutanoyl)-N—((S)-1-(cyclopropylamino)-1,2-dioxo-3-deutero-hexan-3-yl)octahydrocyclopenta[c]pyrrole-1-carboxamide (at 1 uM or 10 uM) and 1200 μL ethyl acetate into the 96 deep-well plate (2 mL) by using a TomTec liquid handling workstation (Hamden, Conn., USA). The plate was then covered tightly and shaken with a vortex for 20 minutes before it was centrifuged at 3000 rpm for 10 minutes. After centrifuge, 900 μL of the supernatant was transferred to a new V-shape 96 deep-well plate using TomTec, and then dried under nitrogen gas (flow rate of 60 L/min) at 25° C. for about 30 minutes. The residue was reconstituted with 100 μL ethyl acetate, and the solution was again transferred into the glass inserts in the 96-well plate. 20 uL of the reconstituted solution was injected into LC-MS/MS to determine the amount of the epimers. The LC-MS/MS spectrometer used a ChiralPak AD Column (4.6×150 mm, 10 μm), a mixture of isopropanol and n-heptane (10:90, 50:50, or 90:10) as the mobile phase, and isopropanol as the washing solvent. […]

[2] = Epimerization rate assay in buffer; type: physicochemical; conditions: 1 uM and 10 uM
Experimental: as §1

SMILES: [2H][C@@](CCC)(NC(=O)[C@@H]1[C@H]2CCC[C@H]2CN1C(=O)[C@@H](NC(=O)[C@@H](NC(=O)c1cnccn1)C1CCCCC1)C(C)(C)C)C(=O)C(=O)NC1CC1 [deuterated compound, (1S,3aR,6aS)-2-((S)-2-((S)-2-cyclohexyl-2-(pyrazine-2-carboxamido)acetamido)-3,3-dimethylbutanoyl)-N—((S)-1-(cyclopropylamino)-1,2-dioxo-3-deutero-hexan-3-yl)octahydrocyclopenta[c]pyrrole-1-carboxamide]
- time course (shape) of epimerization [1]: linear rate for 180 minutes
- epimerization rate compared with non-deuterated form [2]: slower epimerization rate
